Data as given in patent US10781224B2, “Bis(oxymethyl)phosphinic acid and biogenic metal salts thereof as regulators of plant growth and development” (priority 2016, dated 2020).

Assays:
Format in all cases: in vivo
[1] = test system: corn (Krasnodar 385 MV variety); assay: Corn seed treatment with BHMPA salts: germination energy and germination rate
Summary of the method: (§1)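 Corn, winter wheat and rice seeds (50 per dish, on filter paper) were soaked for 1 h in BHMPA or its metal salts at 1·10^−6-1·10^−12%, with water as control. Germination energy was read on day 4 and germination rate on day 8 for wheat and day 7 for rice and corn, following GOST 12038-84, as the mean of four replicates.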

[2] = test system: winter wheat (Vershin variety); assay: Winter wheat seed treatment with BHMPA salts: germination energy and germination rate
Summary of the method: as §1

[3] = test system: corn (Krasnodar 385 MV variety); assay: Corn seed treatment with BHMPA salts: germinating power
Summary of the method: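 Seeds (50 per Petri dish on two layers of filter paper) soaked 1 h in BHMPA or its Ca, Mg, Na, Co, Mn, Cu or Zn salts at 1·10^−6-1·10^−12%, with water controls. Germination energy read on day 4, germination on day 8 (wheat) or day 7 (rice, corn), as % means of four replicates. Germinating power taken as root and sprout length plus wet and dry mass per 100 seedlings.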

[4] = comparative study vs Melaphen, 1·10^−9% solution
[5] = winter wheat Vershin, 1·10^−6% solution
[6] = winter wheat Vershin, 1·10^−7% solution
[7] = winter wheat Vershin, 1·10^−8% solution
[8] = winter wheat Vershin, 1·10^−9% solution
[9] = winter wheat Vershin, 1·10^−10% solution
[10] = winter wheat Vershin, 1·10^−11% solution
[11] = winter wheat Vershin, 1·10^−12% solution
[12] = winter wheat, comparative study vs Melaphen, 1·10^−9% solution
[13] = corn seeds, solution concentration 1 · 10^−6%, manganese salt of BHMPA
[14] = corn seeds, solution concentration 1 · 10^−7%, manganese salt of BHMPA
[15] = corn seeds, solution concentration 1 · 10^−8%, manganese salt of BHMPA
[16] = corn seeds, solution concentration 1 · 10^−9%, manganese salt of BHMPA
[17] = corn seeds, solution concentration 1 · 10^−10%, manganese salt of BHMPA
[18] = corn seeds, solution concentration 1 · 10^−11%, manganese salt of BHMPA
[19] = corn seeds, solution concentration 1 · 10^−12%, manganese salt of BHMPA

Structure (SMILES): O.O.O=P([O-])(CO)CO.O=P([O-])(CO)CO.[Mn+2] [Mn-salt, Manganese BHMPA Salt]
- Germination energy ([1]; 1·10^−6% solution): 81.0%
- Germination rate ([1]; 1·10^−6% solution): 83.3%
- Germination energy ([1]; 1·10^−7% solution): 82.3%
- Germination rate ([1]; 1·10^−7% solution): 85.0%
- Germination energy ([1]; 1·10^−8% solution): 84.7%
- Germination rate ([1]; 1·10^−8% solution): 87.5%
- Germination energy ([1]; 1·10^−9% solution): 87.7%
- Germination rate ([1]; 1·10^−9% solution): 88.7%
- Germination rate ([1]; 1·10^−9% solution, listed as Mn): 90.0%
- Germination energy ([1]; 1·10^−10% solution): 85.0%
- Germination rate ([1]; 1·10^−10% solution): 87.5%
- Germination energy ([1]; 1·10^−11% solution): 82.7%
- Germination rate ([1]; 1·10^−11% solution): 85.3%
- Germination energy ([1]; 1·10^−12% solution): 80.3%
- Germination rate ([1]; 1·10^−12% solution): 83.0%
- Germination energy [1, 4]: 87.3%
- Germination rate [1, 4]: 95.0%
- Germination energy [2, 5]: 72.0%
- Germination rate [2, 5]: 69.3%
- Germination energy [2, 6]: 73.6%
- Germination rate [2, 6]: 76.0%
- Germination energy [2, 7]: 77.9%
- Germination rate [2, 7]: 82.7%
- Germination energy [2, 8]: 85.5%
- Germination rate [2, 8]: 88.7%
- Germination energy [2, 9]: 83.0%
- Germination rate [2, 9]: 85.3%
- Germination energy [2, 10]: 76.1%
- Germination rate [2, 10]: 78.8%
- Germination energy [2, 11]: 71.6%
- Germination rate [2, 11]: 74.0%
- Germination energy [2, 12]: 88.0%
- Germination rate [2, 12]: 93.7%
- optimum concentration for treating corn seeds before sowing ([3]; corn): 1·10^−9%
- Length, root [3, 13]: 4.6 cm
- Length, root, + % to control [3, 13]: −4%
- Length, sprout [3, 13]: 2.8 cm
- Length, sprout, + % to control [3, 13]: −18%
- Mass, dry, root [3, 13]: 1.47 g/100 plantlings
- Mass, dry, root, + % to control [3, 13]: 6%
- Mass, dry, sprout [3, 13]: 0.83 g/100 plantlings
- Mass, dry, sprout, + % to control [3, 13]: 5%
- Mass, wet, root [3, 13]: 9.87 g/100 plantlings
- Mass, wet, root, + % to control [3, 13]: 12%
- Mass, wet, sprout [3, 13]: 5.92 g/100 plantlings
- Mass, wet, sprout, + % to control [3, 13]: 0%
- Length, root [3, 14]: 5.0 cm
- Length, root, + % to control [3, 14]: 4%
- Length, sprout [3, 14]: 3.1 cm
- Length, sprout, + % to control [3, 14]: −9%
- Mass, dry, root [3, 14]: 1.55 g/100 plantlings
- Mass, dry, root, + % to control [3, 14]: 11.5%
- Mass, dry, sprout [3, 14]: 0.89 g/100 plantlings
- Mass, dry, sprout, + % to control [3, 14]: 13%
- Mass, wet, root [3, 14]: 10.61 g/100 plantlings
- Mass, wet, root, + % to control [3, 14]: 20%
- Mass, wet, sprout [3, 14]: 6.63 g/100 plantlings
- Mass, wet, sprout, + % to control [3, 14]: 12%
- Length, root [3, 15]: 5.4 cm
- Length, root, + % to control [3, 15]: 12.5%
- Length, sprout [3, 15]: 3.6 cm
- Length, sprout, + % to control [3, 15]: 6%
- Mass, dry, root [3, 15]: 1.69 g/100 plantlings
- Mass, dry, root, + % to control [3, 15]: 21.5%
- Mass, dry, sprout [3, 15]: 1.05 g/100 plantlings
- Mass, dry, sprout, + % to control [3, 15]: 33%
- Mass, wet, root [3, 15]: 11.92 g/100 plantlings
- Mass, wet, root, + % to control [3, 15]: 35%
- Mass, wet, sprout [3, 15]: 7.03 g/100 plantlings
- Mass, wet, sprout, + % to control [3, 15]: 19%
- Length, root [3, 16]: 5.8 cm
- Length, root, + % to control [3, 16]: 21%
- Length, sprout [3, 16]: 3.9 cm
- Length, sprout, + % to control [3, 16]: 15%
- Mass, dry, root [3, 16]: 1.82 g/100 plantlings
- Mass, dry, root, + % to control [3, 16]: 31%
- Mass, dry, sprout [3, 16]: 1.25 g/100 plantlings
- Mass, wet, root [3, 16]: 12.62 g/100 plantlings
- Mass, wet, root, + % to control [3, 16]: 43%
- Mass, wet, sprout [3, 16]: 7.69 g/100 plantlings
- Mass, wet, sprout, + % to control [3, 16]: 30%
- Length, root [3, 17]: 5.5 cm
- Length, root, + % to control [3, 17]: 14.5%
- Length, sprout [3, 17]: 3.7 cm
- Length, sprout, + % to control [3, 17]: 9%
- Mass, dry, root [3, 17]: 1.72 g/100 plantlings
- Mass, dry, root, + % to control [3, 17]: 24%
- Mass, dry, sprout [3, 17]: 1.17 g/100 plantlings
- Mass, dry, sprout, + % to control [3, 17]: 48%
- Mass, wet, root [3, 17]: 12.06 g/100 plantlings
- Mass, wet, root, + % to control [3, 17]: 36.5%
- Mass, wet, sprout [3, 17]: 7.29 g/100 plantlings
- Mass, wet, sprout, + % to control [3, 17]: 23.5%
- Length, root [3, 18]: 5.3 cm
- Length, root, + % to control [3, 18]: 10%
- Length, sprout [3, 18]: 3.4 cm
- Length, sprout, + % to control [3, 18]: 0%
- Mass, dry, root [3, 18]: 1.61 g/100 plantlings
- Mass, dry, root, + % to control [3, 18]: 16%
- Mass, dry, sprout [3, 18]: 0.92 g/100 plantlings
- Mass, dry, sprout, + % to control [3, 18]: 16%
- Mass, wet, root [3, 18]: 11.78 g/100 plantlings
- Mass, wet, root, + % to control [3, 18]: 33%
- Mass, wet, sprout [3, 18]: 6.91 g/100 plantlings
- Mass, wet, sprout, + % to control [3, 18]: 17%
- Length, root [3, 19]: 4.9 cm
- Length, root, + % to control [3, 19]: 2%
- Length, sprout [3, 19]: 2.9 cm
- Length, sprout, + % to control [3, 19]: −15%
- Mass, dry, root [3, 19]: 1.47 g/100 plantlings
- Mass, dry, root, + % to control [3, 19]: 6%
- Mass, dry, sprout [3, 19]: 0.79 g/100 plantlings
- Mass, dry, sprout, + % to control [3, 19]: 0%
- Mass, wet, root [3, 19]: 10.88 g/100 plantlings
- Mass, wet, root, + % to control [3, 19]: 23%
- Mass, wet, sprout [3, 19]: 6.28 g/100 plantlings
- Mass, wet, sprout, + % to control [3, 19]: 6%
- effectiveness on germinating power ([3]; corn, 1·10^−6%, 1·10^−7%, 1·10^−11% and 1·10^−12% solutions): ineffective
- Length, root, + % to control ([3]; corn, 1·10^−9% solution): 21%
- Length, sprout, + % to control ([3]; corn, 1·10^−9% solution): 15%
- Mass, dry, root, + % to control ([3]; corn, 1·10^−9% solution): 31%
- Mass, dry, sprout, + % to control ([3]; corn, 1·10^−9% solution): 58%
- Mass, wet, root, + % to control ([3]; corn, 1·10^−9% solution): 43%
- Mass, wet, sprout, + % to control ([3]; corn, 1·10^−9% solution): 30%
